In US9856247B2, “4-methyl-dihydropyrimidines for the treatment and prophylaxis of Hepatitis B virus infection” (Hoffmann-La Roche Inc., priority 2012, dated 2018):

Tests used:
[1] = Incubation with human liver microsomes (metabolite formation); assay type: in vitro ADME; conditions: 5 μM, 1 mM NADPH, 60 minutes
Method: (§1) In this experiment, pooled liver microsomes (20 mg/ml) from human, male Wister rat and male CD-1 mouse were obtained from BD Bioscience (Franklin Lakes, N.J. USA). Incubation reaction mixtures contained a final concentration of 0.1M sodium phosphate buffer (pH 7.4), 0.5 mg/ml microsomal protein, 5 μM of the tested compounds and 1 mM NADPH in a total volume of 400 μl. The incubations were done for 60 minutes and 300 μl of the mixtures was transferred to 150 μl of ice cold methanol to terminate reactions. After vortexes for 3 minutes and centrifuged at 4000 rpm at 4° C. for 10 minutes, the clear supernatant was used directly for analysis. The samples were analyzed by Applied Biosystems API 3200 Q TRAP LC/MS/MS system using electrospray ionization mode.

HBV = HBV infected transgenic mouse or humanized mouse models; cited from earlier work
[2] = Incubation with mouse liver microsomes (metabolite formation); assay type: in vitro ADME, male CD-1 mouse; conditions: 5 μM, 1 mM NADPH, 60 minutes
Method: as §1

[3] = Stability in mouse liver homogenate; assay type: in vitro ADME, CD-1 mouse
Method: In this experiment, fresh mouse liver sample was homogenized by adding saline (1 g liver tissue: 5 mL saline) immediately after collection. After centrifuging for 10 minutes at 14000 rpm, the pooled supernatant was used to prepare liver homogenate solutions. […] Then, they were incubated at rt. After incubation time of 0, 15 and 30 minutes, 180 μl aliquots of MeOH was added into 20 μl of homogenate, respectively. All these samples were vortex mixed for 5 minutes at 1500 rpm and centrifuged for 10 minutes at 14000 rpm. The supernatants were transferred into a 96-well plate for LC-MS/MS analysis.
The Chromatographic separation was achieved on a Chromolith Performance RP-18 endcapped (3×100 mm) at room temperature.
Data processing was performed with Agilent MassHunter Workstation Data Acquisition B.04.00 and Agilent MassHunter Workstation Qualitative Analysis B.04.00.

[4] = Incubation with rat liver microsomes (metabolite formation); assay type: in vitro ADME, male Wister rat; conditions: 5 μM, 1 mM NADPH, 60 minutes
Method: as §1

For `COC(=O)C1=C(C)NC(c2ncc(F)cc2F)=N[C@H]1c1ccc(F)cc1Cl` [Bay 41-4109], the “conversion to pyrimidine product XLVI” value [1] is listed as “converted to XLVI”, the “in vivo efficacy (HBV DNA reduction)” value (HBV) is listed as “demonstrated in vivo efficacy with HBV DNA reduction” and the “conversion to pyrimidine product XLVI” value [2] is listed as “oxidized to pyrimidine product XLVI”. The “Percentage to 0 min” value ([3]; 100 ng/mL, incubation time 0 min) was 100%, the “Percentage to 0 min” value ([3]; 100 ng/mL, incubation time 15 min, rt) was 1.84% and the “Percentage to 0 min” value ([3]; 300 ng/mL, incubation time 0 min) was 100%. For the same compound, the “Percentage to 0 min” value ([3]; 300 ng/mL, incubation time 30 min, rt) was 0%, the “Percentage to 0 min” value ([3]; 1000 ng/mL, incubation time 0 min) was 100% and the “Percentage to 0 min” value ([3]; 1000 ng/mL, incubation time 15 min, rt) was 1.90%. For the same compound, the “Percentage to 0 min” value ([3]; 1000 ng/mL, incubation time 30 min, rt) was 0.16%, the “compound detected after incubation” value ([3]; 15 minutes room temperature incubation, at three different concentration levels) was “About 2%” and the “stability in liver homogenate treated with saline” value ([3]; conclusion in words) was “not stable”. The “conversion to pyrimidine product XLVI” value [4] was “oxidized to pyrimidine product XLVI”.
